Results from patent publication US20250136581A1, “SUBSTITUTED TRIAZOLE DERIVATIVE, PREPARATION METHOD THEREFOR, PHARMACEUTICAL COMPOSITION THEREOF, AND USE THEREOF” (SHANGHAI SIMR BIOTECHNOLOGY CO., LTD., priority 2021, published 2025).
pKi: −log10 of the molar value.

Legend:
[1] = biological target: human α5β3γ2 receptors (α5-GABAA receptor) (Homo sapiens (Human), UniProt P18507+P31644); experiment: 3H-flunitrazepam competition binding, human α5β3γ2 GABAA receptor; conditions: HEK293 cell membranes, 1 nM 3H-flunitrazepam; read-out: α5-GABAAR Ki
In short: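 HEK293 membranes stably expressing each human receptor subtype ([…]) competed against 1 nM 3H-flunitrazepam in Tris buffer, 1 h at room temperature; flumazenil defined the low-signal control. Eight-point 4-fold test-compound dilutions; GF/C filtration and scintillation counting gave IC50 by curve fitting, converted to Ki.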

[2] = biological target: α5-GABAA receptor (α5, β3, γ2 subunits) (Homo sapiens (Human), UniProt P18507+P31644); experiment: Whole cell patch clamp, inverse agonist efficacy in HEK293 cells expressing α5-GABAA receptor; type: cell-based; conditions: GABA 0.05 μM, −60 mV; for inhibition at 0.1 µM: HEK293, drug 100 nM, read-out: Compound inverse agonist efficacy %
Source text: The inventors used electrophysiological methods to determine the inverse agonist efficacy of the drugs to be tested on the α5-GABAA receptor. The detailed methods are as follows:
Different subunits of the GABAA receptor were co-expressed in the HEK293 cell line to construct a fully functional GABAA receptor. The α, β, and γ subunits are essential to form a complete functional GABAA receptor. In this example, the present disclosure had established the following cell model: α5 subunit (see GenBank Accession No.: NM_000810.3 for protein sequences), β3 subunit (see GenBank Accession No.: NM_000814.5 for protein sequences), and γ2 subunit (see GenBank Accession No.: NM_000816.3 for protein sequences) were co-expressed in the HEK293 cell line, followed by screening the monoclonal stably transfected cell line. This cell line expressed a fully functional α5-GABAA receptor.
The monoclonal stably transfected HEK293 cell line expressing α5-GABAA receptor were cultured in 10 cm culture dishes and passaged when the cells grew to 80% to 90% confluent. During passaging, the culture medium was aspirated first, then 3 mL of DPBS phosphate buffer salt (Gibco™) was added to the culture dishes, and the culture dishes were shaken slightly, and DPBS was aspirated. 1 mL of trypsin (TrypLE Express, Gibco™) was added thereto, and the cells were digested at 37° C. for 1-2 minutes. Then 3 mL of complete medium (DMEM+10% FBS (Gibco™)) was added and the cells at the bottom of the culture dishes were dispersed. The cell suspension was transferred to a 15 mL centrifugal tube (Corning) and then centrifuged at 200 g for 3 minutes. The supernatant was discarded, 4 mL of complete medium was added, and the cells were gently blown and resuspended for use. If cell passaging was performed, the cell suspension was diluted at a ratio of 1:5 or 1:10. If cells for electrophysiological detection were prepared, the cell suspension was diluted in a ratio of 1:12, then added into a 24-well dish (Corning™) in which glass slides were placed and pretreated with Poly-D-Lysine, and the experiment was carried out after the cells adhered to the wall. The cells used for electrophysiology was cultured no more than 48 hours.
Drug concentration setting: The final drug concentration used in drug screening was 100 nM, and the GABA concentration was 0.05 μM. The whole cell patch clamp technique was used in electrophysiological assays, which could refer to the literature (I. Lecker, Y. Yin, D. S. Wang and B. A. Orser, British Journal of Anaesthesia, 2013, 110 (Si), i73-i81). The compositions of the extracellular solution for electrophysiology assay were as follows: 150 mM NaCl, 5 mM KCl, 2.5 mM CaCl2, 1 mM MgCl2, 10 mM HEPES, and 10 mM glucose (pH 7.4); the formulation of the electrode internal fluid for electrophysiology use was as follows: 140 mM CsCl, 11 mM EGTA, 10 mM HEPES, 2 mM CaCl2, 1 mM MgCl2, 4 mM MgATP, and 2 mM TEA (pH 7.3). The signal acquisition used an EPC-10 amplifier and the PatchMaster software (HEKA) or Axon700B amplifier and Clampex software (AXON). The recording electrode was pulled from borosilicate glass, and the electrode resistance was 4 to 6 MQ. The ALA-VC-8PG™ system was used for drug application. Single cell that grew independently was selected for recording. During recording, the cell membrane potential was clamped at −60 mV. During experiment, an extracellular solution was applied outside the cells for about 20 seconds. When the baseline reached to a stable state, the extracellular solution was switched to the GABA solution to induce an inward current. After about 20 to 40 seconds until the current was stable, the solution was switched to a corresponding drug solution to detect the effect of the drug. At last, the solution was switched to the extracellular solution, and the experiment was terminated when the baseline returned to the level before drug application. […]

Structure (SMILES)	pKi [1]	inhibition at 0.1 µM [2] [%]	Compound inverse agonist efficacy % ([2]; drug 100 nM) [%]
Cc1nnn(-c2ccc(C(F)F)cc2)c1COc1ccc(N2CCN3CC(C4CC4)NC(=O)[C@@H]3C2)nn1 (single isomer, unassigned) [Example 203]	8.70	50.8	–
Cc1nnn(-c2ccc(C(F)F)cc2)c1COc1ccc(N2CCN3CC(CC(C)C)NC(=O)[C@@H]3C2)nn1 (single isomer, unassigned) [Example 208]	8.71	55.9	–
Cc1nnn(-c2ccc(C(F)F)cc2)c1COc1ccc(N2CCN3CC(CC(C)C)NC(=O)[C@@H]3C2)nn1 (single isomer, unassigned) [Example 209]	8.69	–	−52.08
Cc1nnn(-c2ccc(C(F)F)cc2)c1COc1ccc(N2CCN3CC(c4cnn(C)c4)NC(=O)[C@@H]3C2)nn1 (single isomer, unassigned) [Example 210]	8.55	47.6	–
Cc1nnn(-c2ccc(C(F)F)cc2)c1COc1ccc(N2CCNC(=O)CC2)nn1 [Example 3, 1-(6-((1-(4-(Difluoromethyl)phenyl)-4-methyl-1H-1,2,3-triazol-5-yl)methoxy)pyridazin-3-yl)-1,4-diazepan-5-one]	8.89	40.8	–
Cc1nnn(-c2ccc(C(F)F)cc2)c1COc1ccc(N2CCNC(=O)C2C)nn1 (centres unmarked) [Example 11, 4-(6-((1-(4-(Difluoromethyl)phenyl)-4-methyl-1H-1,2,3-triazol-5-yl)methoxy)pyridazin-3-yl)-3-methylpiperazin-2-one]	9.24	49.1	–
Cc1nnn(-c2ccc(C(F)F)cc2)c1COc1ccc(N2CCN3CCOC[C@@H]3C2)nn1 [Example 13, (S)-8-(6-((1-(4-(Difluoromethyl)phenyl)-4-methyl-1H-1,2,3-triazol-5-yl)methoxy)pyridazin-3-yl)octahydropyrazino[2,1-c][1,4]oxazine]	8.66	43.3	–
Cc1nnn(-c2ccc(C(F)F)cc2)c1COc1ccc(N2CCC2=O)nn1 [Example 18, 1-(6-((1-(4-(Difluoromethyl)phenyl)-4-methyl-1H-1,2,3-triazol-5-yl)methoxy)pyridazin-3-yl)azetidin-2-one]	8.67	51.5	–
Cc1nnn(-c2ccc(C(F)F)cc2)c1COc1ccc(N2CCCC2=O)nn1 [Example 20, 1-(6-((1-(4-(Difluoromethyl)phenyl)-4-methyl-1H-1,2,3-triazol-5-yl)methoxy)pyridazin-3-yl)pyrrolidin-2-one]	8.71	51.2	–
Cc1nnn(-c2ccc(C(F)F)cc2)c1COc1ccc(N2CCN[C@@H](C(=O)O)C2)nn1 [Example 28, (R)-4-(6-((1-(4-(Difluoromethyl)phenyl)-4-methyl-1H-1,2,3-triazol-5-yl)methoxy)pyridazin-3-yl)piperazine-2-carboxylic acid]	8.37	47.7	–
CNC(=O)[C@@H]1CN(c2ccc(OCc3c(C)nnn3-c3ccc(C(F)F)cc3)nn2)CCN1 [Example 30, (S)-4-(6-((1-(4-(Difluoromethyl)phenyl)-4-methyl-1H-1,2,3-triazol-5-yl)methoxy)pyridazin-3-yl)-N-methylpiperazine-2-carboxamide]	8.57	41.9	–
Cc1nnc([C@@H]2CN(c3ccc(OCc4c(C)nnn4-c4ccc(C(F)F)cc4)nn3)CCN2)o1 [Example 34, (S)-2-(4-(6-((1-(4-(Difluoromethyl)phenyl)-4-methyl-1H-1,2,3-triazol-5-yl)methoxy)pyridazin-3-yl)piperazin-2-yl)-5-methyl-1,3,4-oxadiazole]	8.15	42.2	–
Cc1nnn(-c2ccc(C(F)F)cc2)c1COc1ccc(N2CCO[C@H](C(=O)O)C2)nn1 [Example 35, (S)-4-(6-((1-(4-(Difluoromethyl)phenyl)-4-methyl-1H-1,2,3-triazol-5-yl)methoxy)pyridazin-3-yl)morpholine-2-carboxylic acid]	8.04	52.8	–
Cc1nnn(-c2ccc(C(F)F)cc2)c1COc1ccc(N2CC(=O)N[C@H](C(=O)O)C2)nn1 [Example 36, (S)-4-(6-((1-(4-(Difluoromethyl)phenyl)-4-methyl-1H-1,2,3-triazol-5-yl)methoxy)pyridazin-3-yl)-6-oxopiperazine-2-carboxylic acid]	7.87	49	–
Cc1nnn(-c2ccc(C(F)F)cc2)c1COc1ccc(N2CC(C(=O)O)C2)nn1 [Example 37, 1-(6-((1-(4-(Difluoromethyl)phenyl)-4-methyl-1H-1,2,3-triazol-5-yl)methoxy)pyridazin-3-yl)azetidine-3-carboxylic acid]	7.91	50.6	–
Cc1nnn(-c2ccc(C(F)F)cc2)c1COc1ccc(N2CC(C(=O)NC3CC3)C2)nn1 [Example 44, N-Cyclopropyl-1-(6-((1-(4-(difluoromethyl)phenyl)-4-methyl-1H-1,2,3-triazol-5-yl)methoxy)pyridazin-3-yl)azetidine-3-carboxamide]	8.64	49.6	–
Cc1nnn(-c2ccc(C(F)F)cc2)c1COc1ccc(N2CC(C(=O)NC3COC3)C2)nn1 [Example 45, 1-(6-((1-(4-(Difluoromethyl)phenyl)-4-methyl-1H-1,2,3-triazol-5-yl)methoxy)pyridazin-3-yl)-N-(oxetan-pyridin-3-yl)azetidine-3-carboxamide]	8.49	50.8	–
Cc1nnn(-c2ccc(C(F)F)cc2)c1COc1ccc(N2CC(C(=O)NC3CCN(C)CC3)C2)nn1 [Example 46, 1-(6-((1-(4-(Difluoromethyl)phenyl)-4-methyl-1H-1,2,3-triazol-5-yl)methoxy)pyridazin-3-yl)-N-(1-methylpiperidin-4-yl)azetidine-3-carboxamide]	8.72	41.8	–
Cc1nnn(-c2ccc(C(F)F)cc2)c1COc1ccc(N2CC(C(=O)NC3CCOCC3)C2)nn1 [Example 50, 1-(6-((1-(4-(Difluoromethyl)phenyl)-4-methyl-1H-1,2,3-triazol-5-yl)methoxy)pyridazin-3-yl)-N-(tetrahydro-2H-pyran-4-yl)azetidine-3-carboxamide]	8.19	41.5	–
Cc1nnn(-c2ccc(C(F)F)cc2)c1COc1ccc(N2CC(C(=O)Nc3ccncc3)C2)nn1 [Example 52, 1-(6-((1-(4-(Difluoromethyl)phenyl)-4-methyl-1H-1,2,3-triazol-5-yl)methoxy)pyridazin-3-yl)-N-(pyridin-4-yl)azetidine-3-carboxamide]	8.96	45.9	–
Cc1nnn(-c2ccc(C(F)F)cc2)c1COc1ccc(C2=CC(=O)NCC2)nn1 [Example 57, 4-(6-((1-(4-(Difluoromethyl)phenyl)-4-methyl-1H-1,2,3-triazol-5-yl)methoxy)pyridazin-3-yl)-5,6-dihydropyridin-2(1H)-one]	9.57	52	–
Cc1nnn(-c2ccc(C(F)F)cc2)c1COc1ccc(N2CCN(C3CCOC3)C(=O)C2)nn1 (centres unmarked) [Example 58, 4-(6-((1-(4-(Difluoromethyl)phenyl)-4-methyl-1H-1,2,3-triazol-5-yl)methoxy)pyridazin-3-yl)-1-(tetrahydrofuran-3-yl)piperazin-2-one]	8.73	46	–
